# Experimental data reported in PubChem BioAssay (NCI).
#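 Cultured in 96-well plates, cells were exposed to test compound for 48 hours across five concentrations. TGI denotes the concentration required for complete inhibition of growth.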 Where a SMILES comes first, the peptide text is derived from it. [ ]: non-standard residue; d: D form. β3hI = CC[CH](C)[CH](N)CC(=O)O
# Columns and labels:
# Experiment in all cases: NCI anticancer screen, dose series, 48 h
# OVCAR-8 ovarian = tested on: OVCAR-8 ovarian
# UACC-257 melanoma = tested on: UACC-257 melanoma
# HT29 colon = tested on: HT29 colon
# 786-0 renal = tested on: 786-0 renal
# OVCAR-4 ovarian = tested on: OVCAR-4 ovarian
# T-47D breast = tested on: T-47D breast
# NCI/ADR-RES ovarian = tested on: NCI/ADR-RES ovarian
# MOLT-4 leukemia = tested on: MOLT-4 leukemia
# SNB-75 CNS = tested on: SNB-75 CNS
# IGROV1 ovarian = tested on: IGROV1 ovarian
# LOX IMVI melanoma = tested on: LOX IMVI melanoma
# UACC-62 melanoma = tested on: UACC-62 melanoma
# SK-MEL-2 melanoma = tested on: SK-MEL-2 melanoma
# COLO 205 colon = tested on: COLO 205 colon
# SF-268 CNS = tested on: SF-268 CNS
# ACHN renal = tested on: ACHN renal
# KM12 colon = tested on: KM12 colon
# SR leukemia = tested on: SR leukemia
Structure (SMILES),TGI (OVCAR-8 ovarian) [µM],TGI (UACC-257 melanoma) [µM],TGI (HT29 colon) [µM],TGI (786-0 renal) [µM],TGI (OVCAR-4 ovarian) [µM],TGI (T-47D breast) [µM],TGI (NCI/ADR-RES ovarian) [µM],TGI (MOLT-4 leukemia) [µM],TGI (SNB-75 CNS) [µM],TGI (IGROV1 ovarian) [µM],TGI (LOX IMVI melanoma) [µM],TGI (UACC-62 melanoma) [µM],TGI (SK-MEL-2 melanoma) [µM],TGI (COLO 205 colon) [µM],TGI (SF-268 CNS) [µM],TGI (ACHN renal) [µM],TGI (KM12 colon) [µM],TGI (SR leukemia) [µM]
CC(C)NCC(O)c1ccc(OCc2ccccc2)c(OCc2ccccc2)c1-c1ccccc1 (centres undefined),3.17,3.54,3.04,3.25,3.79,7.53,3.73,4.55,2.54,2.71,13.8,2.72,4.18,3.2,11.8,3.06,,
COc1cc([C@@H]2c3[nH]c4ccccc4c3C(Nc3ccc([N+](=O)[O-])cc3)[C@H]3COC(=O)N23)cc(OC)c1O (some centres undefined),0.86,11.6,,0.665,5.91,> 23.2,> 100,0.289,1.66,2.86,0.297,1.17,> 72.7,2.86,5.35,0.659,2.71,
CCOC(=O)CCC(NC(=O)Cc1ccc(Oc2nc3ccccc3nc2-c2cccs2)cc1)C(=O)OCC (centres undefined),14.2,> 100,> 100,15.3,94,,> 100,> 100,,> 100,> 100,> 100,> 100,> 100,12.6,18.3,> 100,> 100
Cc1[nH]c(=O)nc(NCCNCCO)c1C(=O)Nc1c2ccccc2nc2ccccc12,> 100,> 100,> 100,> 100,> 100,> 100,> 100,> 100,> 100,> 100,> 100,> 100,> 100,> 100,,> 100,> 100,
O=C(NCCO)Nc1c(C(F)(F)F)cc(-c2ccccc2)[nH]c1=O,> 100,> 100,> 100,> 100,> 100,> 100,> 100,> 100,,> 100,> 100,> 100,> 100,> 100,,> 100,> 100,
CN(C1=NCCO1)c1cccc2c1CCCC2,> 10,> 10,5.2,> 10,7.78,> 10,> 10,> 10,,8.35,5.27,> 10,> 10,3.4,> 10,8.09,> 10,> 10
O=C1CC2(CCNCC2)C(=O)N1N1CCCC1,> 100,> 100,> 100,> 100,,> 100,> 100,> 100,,> 100,> 100,> 100,,> 100,,> 100,> 100,> 100
O=C(O)CC/C(=N\Nc1nsc2ccccc12)c1ccc(Cl)cc1,> 100,> 67.4,> 78.1,> 100,> 80.2,> 100,,73.5,73.1,> 100,25.7,50.6,> 100,> 100,> 89.3,> 80.6,> 100,
CCOC(=O)c1[nH]c2ccccc2c1C(=O)C[C@H](NC(=O)C(F)(F)F)C(=O)OC,> 100,> 100,> 100,> 100,> 100,,> 100,> 100,> 100,> 100,> 100,,> 100,> 100,> 100,> 100,> 100,> 100
N#CCCN(CCC#N)c1ccc(/C=C2\N=C(c3ccccc3)N(c3ccccn3)C2=O)cc1,> 100,> 100,> 100,> 100,> 100,> 100,> 100,> 100,,> 100,> 100,> 100,> 100,> 100,> 100,> 100,> 100,
CCC(C)C(CC(=O)N1CCCC1C(=O)NC(C(=O)NC(C(=O)NCC(=O)NC(CC(N)=O)C(=O)NC(C(=O)NC(C(=O)NC(CCCCN)C(N)=O)C(C)CC)C(C)CC)C(C)C)C(C)CC)NC(=O)C(N)C(C)CC (stereo not drawn) (H-I[β3hI]PIVGNIIK-NH2; configuration not given here),> 50,> 50,> 50,> 50,> 50,> 50,> 50,> 50,,> 50,> 50,> 50,> 50,> 50,> 50,> 50,> 50,> 50
CC1CCC2C(C(=O)O[C@H]3C4CCO[C@@H](OC5OC(CO)C(O)C(O)C5O)C4[C@@]4(CO)O[C@@H]34)=CO[C@@H](OC3OC(CO)C(O)C(O)C3O)C12 (some centres undefined),> 10,> 10,> 10,> 10,,> 10,,> 10,> 10,> 10,> 10,> 10,> 10,,> 10,> 10,> 10,> 10
S=C(S)N1CCN(c2ccc(Cl)c(Cl)c2)CC1,> 100,,49.3,> 100,,42.6,> 100,,> 100,84.6,31.6,,34.6,33.6,> 100,> 100,34.5,
COc1cccc(N2C(=O)CSC2c2cc(OC)c(OC)c(OC)c2)c1 (centres undefined),> 100,> 100,> 100,> 100,> 100,,91.4,> 100,,> 100,> 100,> 100,> 100,76.8,> 100,> 100,> 100,> 100
